Measurements taken from patent US20100184818A1, “PHOTOSENSITIZERS FOR TARGETED PHOTODYNAMIC THERAPY” (THE GENERAL HOSPITAL CORPORATION, priority 2007, published 2010).

Legend:
[1] = Octanol-water distribution coefficient; assay type: physicochemical; conditions: 1-octanol / DI water, absorbance at 330 nm
Procedure: Each compound was dissolved in a minimum amount of DMSO: CI1 (0.9 mg in 200 μl), CI2 (5.3 mg in 200 μl), CI3 (5.4 mg in 200 μl). Ten ml of DI water and 10 ml of 1-octanol were added in each compound and vigorously shaken for 2 min. and the vials of the compounds were settled down overnight. The phases were separated and UV-spectra of each phase were analyzed. Distribution coefficient of each compound was determined using absorbance of aqueous phases and organic phases at 330 nm.

J774 cells = assay: Intracellular reactive oxygen species, H2DCFDA probe fluorescence microscopy; assay type: cell-based, murine; conditions: 5 μM BF4 for 24 h, then probe, 5 J/cm2 405 nm laser, compared with probe alone
Procedure: J774 cells were incubated with 5 μM BF4 for 24 h and on the next day 5 μg/ml of 5- (and -6)-chloromethyl-2′-7′-dichlorodihydrofluoresceine diacetate, (CMH2DCFDA, Molecular Probes, Invitrogen) in complete medium was added and incubated for 30 min at 37° C., then cells were washed with PBS and 5 J/cm2 of 405 nm laser light (Nichia Corp, Detroit, Mich.) was delivered. Five to 10 min later a Leica DMR confocal laser fluorescence microscope (Leica Mikroskopie and Systeme GmbH, Wetzler, Germany) with excitation by a 488 nm argon laser and emission with a 530 nm+/−10 nm bandpass filter, and a 63×1.20 water immersion lens was used to image the cells at a resolution of 1024×1024 pixels. Images were acquired using TCS NT software (Version 1.6.551, Leica Lasertechnik, Heidelberg, Germany).

[2] = Singlet oxygen 1270-nm luminescence and quantum yield; assay type: physicochemical; conditions: for Singlet oxygen luminescence decay curve in organic solvent: CH3OD, 449 nm excitation; for Singlet oxygen decay curve when solvent changed to aqueous buffer: deuterated PBS versus CH3OD
Source text: The sample in a 0.25 mm quartz cell was illuminated within the resonant cavity as described above. Singlet oxygen phosphorescence at 1270 nm was monitored by a nitrogen-cooled germanium detector (Model EO-817, North Coast Scientific Corp, Santa Rosa, Calif.). Photoexcitation of the sample studied was induced by a 5 ns 355 nm laser pulse from a Q-switched Nd:YAG laser (Continuum Surelite II, Santa Clara, Calif.) equipped with an optical parametric oscillator (Opotek, Carlsbad, Calif.). Sample in deuterated PBS (pD ˜6.9) or in deuterated methanol (CH3OD) was excited with 449 nm wavelength.

CT26 cells = assay: PDT phototoxicity, MTT assay; assay type: cell-based, murine; conditions: 2 μM, 80 J/cm2 of light
Procedure: When the cells reached 80% confluence, they were washed with PBS and harvested with 2 mL of 0.25% trypsin-EDTA solution (Sigma). Cells were then centrifuged and counted in trypan blue to ensure viability and plated at density of 5000/well in flat-bottom 96 well plates (Fisher Sci, Pittsburgh, Pa.). Cells were allowed 24 h to attach.
On the following day dilutions of the fullerenes were prepared in complete RPMI medium and added to the cells at […] for 24 h incubation as described. Prior to illumination the fullerene solution was removed and fresh complete medium was replaced and the illumination (150 mW/cm2 white light, 1-80 J/cm2) was performed. The light spot covered 9 wells which were considered as one experimental group. All wells in a group were illuminated at the same time. […]
Following PDT treatment the cells were returned to the incubator overnight and the phototoxicity was measured using a 4 h MTT assay read at 560 nm using a microplate spectrophotometer (Spectra Max 340 PC, Molecular Devices, Sunnyvale, Calif.). […]
Briefly cells were treated with PDT sufficient to kill 80% of cells (5 J/cm2 for J774, 20 J/cm2 for LLC and 80 J/cm2 for CT26). […] Samples were incubated in the dark for 1 h at 37° C. and fluorescence was measured (excitation 400 nm, emission 505 nm). The protein per sample was measured with bicinchoninic acid protein assay.

| SMILES | LogKow [1] | Octanol-water partition constant Kow [1] | Fluorescence of intracellular ROS probe after illumination (J774 cells) | Singlet oxygen luminescence decay curve in organic solvent [2] | Singlet oxygen decay curve when solvent changed to aqueous buffer [2] | Lethal dose of PDT (share of cells killed) (CT26 cells) | Singlet oxygen quantum yield in O2 saturated D2O, higher than that found in air ([2]; O2 saturated D2O versus air saturated) | Singlet oxygen luminescence in aqueous buffer saturated with nitrogen ([2]; nitrogen saturated aqueous buffer) |
| --- | --- | --- | --- | --- | --- | --- | --- | --- |
| C[N+]1(C)CC2c3c4c5c6c3c3c(c7ccc8c9ccc%10c%11c%12c%13c%14c(c6c6c3c7c8c(c9c%10%13)c%146)=C3C5C(C=C4)C(C=C%11)C3%12)C2C1.[I-] (stereo not drawn) [CI1] | 2.15 | 140.80 | large increase in fluorescence | very similar luminescence decay curves | almost disappeared | 80% |  |  |
| C[N+]1(C)Cc2c(c3c4ccc5c6c7c8c9c%10c%11c%12c%13c(c%14c%12c%12c(c2c2c%12c%11c9c(c4c58)c32)C2C[N+](C)(C)CC%142)C=CC2C%13C=%10C7C2C=C6)C1.[I-].[I-] (stereo not drawn) [CI2] | 0.11 | 1.28 |  |  |  |  |  |  |
| C[N+]1(C)Cc2c3c4c5c6c7c8c9c(c%10c8c8c(c%11c%12c(c%13c%14ccc%15c(c2C1)c4c1c%15c%14c2c%13c%11c8c7c2c61)C[N+](C)(C)C%12)C1C[N+](C)(C)CC%101)C=CC3C95.[I-].[I-].[I-] (stereo not drawn) [CI3] | −0.43 | 0.37 |  | very similar luminescence decay curves | remained almost unchanged | 60% | about 50% | luminescence disappeared |
| O=C(NC(CO)CO)C1(C(=O)NC(CO)CO)C2c3c4c5c6c3c3c(c7ccc8c9ccc%10c%11ccc%12c%13c(c%14c6c6c3c7c8c3c9c%10c(c%13%11)c%14c36)C5C%12C=C4)C21 (stereo not drawn) [NI1] | −1.61 | 0.025 |  |  |  |  |  |  |
| O=C(NC(CO)CO)C1(C(=O)NC(CO)CO)c2c1c1c3ccc4c5c6c7c(c8c9c7c7c%10c%11c%12c(ccc%13c2c2c1c1c3c4c6c7c1c%10c2c%12%13)C(C=C8)C9%11)C1C5C1(C(=O)NC(CO)CO)C(=O)NC(CO)CO (stereo not drawn) [NI2] | −1.49 | 0.032 |  |  |  |  |  |  |
| Cc1cc2nc3c(=O)[nH]c(=O)nc-3n(C[C@H](O)[C@H](O)[C@H](O)CO)c2cc1C [riboflavin, Riboflavin, reference compound] |  |  |  | somewhat larger | remained almost unchanged |  |  |  |
